US6872749B2, “Method for supplying bioavailable methionine to a cow” (Adisseo Ireland Limited, priority 1998, dated 2005)
Read-outs that look alike come from different tables or passages of the source.

Experiments:
[1] = bovine, in vivo
Protocol: Spot doses of the following amounts of the esters prepared as detailed above, equating to 50 g of methionine equivalent, were given to 2 cows in the manner described in Example 2(b1) above. • methyl ester of HMB: 64.8 g • ethyl ester of HMB: 74.8 g • isopropyl ester of HMB: 80.5 g • n-butyl ester of HMB: 96 g • cyclohexyl ester of HMB: 97.5 g • see butyl ester of HMB: 79 g The concentration of methionine and HMB was measured over a period of 27 hours.
56 g of methyl methioninate and 72 g of n-propyl methioninate (providing an equivalent 50 g of DL-methionine), prepared as detailed above, were supplied to two cows as a spot dose at 7.45 am just before the morning feed.
The ration given to the cows was distributed as two equal meals at 08.00 hours and 16.00 hours comprised 7 kg of hay and 2 kg concentrate.
Samples of blood were taken by jugular vein puncture 09.00, 10.00, 11.00, 13.00 and 15.00 hours on the day where the ester was given to the animal and at 09.00, 12.00 and 15.00 hours on the day before and two days after supply.
The plasma from each sample was isolated from the blood samples by centrifuging the blood at 3000 revs per minute for 10 minutes. The samples were stored in a freezer. The assay for methionine was carried out according to the standard procedure of Moore and Stein.
The results were plotted using the conventional AUC method wherein the areas under the curves are calculated to obtain the bioavailability values for each ester.

in vivo = settings: bovine
Protocol: The kinetics of availability of methionine and HMB in the bloodstream were determined for the isopropyl ester of the hydroxy analogue of methionine and compared with the hydroxy analogue of methionine (a compound not according to the present invention).
The procedure of Example 2 was repeated wherein samples of the isopropyl ester of the hydroxy analogue (69 g) and the hydroxy analogue (Alimet™-57 g) were given to four cows.

cows = experiment: Milk production of dairy cows given ester supplement (Examples 4 and 6); assay type: in vivo, cow; settings: for Butter Content of Milk / Daily amount of milk / Protein content of Milk: supplement providing 12.5 g of bioavailable methionine per animal per day, 16 cows; for Effect of addition to the diet on milk composition: versus control, Table 5
Description: The isopropyl ester of the hydroxy analogue of methionine was given to 16 cows over a period of 8 weeks. Each cow was given daily corn silage and a supplement to cover 100% of requirement and a 115% PDIE (protein digestible in the intestine) requirement.
The supplements were given to the cows according to the following schedule: […]

[2] = incubation for six hours in rumen juices; cited from earlier work
[3] = Bioavailability of esters of methionine after spot dose to cows (Example 2); assay type: in vivo, cow
Protocol: The bioavailability of the esters was evaluated.
The samples were stored in a freezer.
The procedure of (b1) was repeated using 72 g of methionine ethyl ester hydrochloride, prepared as detailed above
• cyclohexyl methioninate: 122 g • methionine methyl ester hydrochloride: 73 g • sec butyl methioninate: 72 g

[4] = dose of methionine equivalent to 50 g per day per cow; cited from earlier work

Bioavailability [1]	[met] methionine concentration in blood plasma ([3]; bovine, in vivo, 0 h)	[met] methionine concentration in blood plasma ([3]; bovine, in vivo, 1 h)	[met] methionine concentration in blood plasma ([3]; bovine, in vivo, 2 h)	[met] methionine concentration in blood plasma ([3]; bovine, in vivo, 3 h)	[met] methionine concentration in blood plasma ([3]; bovine, in vivo, 5 h)	[met] methionine concentration in blood plasma ([3]; bovine, in vivo, 7 h)	[met] methionine concentration in blood plasma ([3]; bovine, in vivo, 28 h)	Bioavailability % ([3]; bovine, in vivo, po)	SMILES	further results
17%									CCCCOC(=O)C(O)CCSC (centres unmarked) [n-butyl ester of HMB]	
	0.32 mg/100 g of blood plasma	2.29 mg/100 g of blood plasma	1.70 mg/100 g of blood plasma	1.55 mg/100 g of blood plasma	1.27 mg/100 g of blood plasma	1.14 mg/100 g of blood plasma	0.32 mg/100 g of blood plasma	22%	CCCOC(=O)[C@@H](N)CCSC [n-propyl methioninate]	
35%									CCOC(=O)C(O)CCSC (centres unmarked) [ethyl ester of HMB]	amount remaining after incubation in rumen juices [2]: 3%
	0.32 mg/100 g of blood plasma	1.10 mg/100 g of blood plasma	0.74 mg/100 g of blood plasma	0.63 mg/100 g of blood plasma	0.62 mg/100 g of blood plasma	0.61 mg/100 g of blood plasma	0.27 mg/100 g of blood plasma	8%	CCCCOC(=O)[C@@H](N)CCSC [n-butyl methioninate]	
	0.31 mg/100 g of blood plasma	1.22 mg/100 g of blood plasma	0.92 mg/100 g of blood plasma	0.94 mg/100 g of blood plasma	1.06 mg/100 g of blood plasma	1.07 mg/100 g of blood plasma	0.35 mg/100 g of blood plasma	17%	CCCCCCOC(=O)[C@@H](N)CCSC [n-hexyl methioninate]	
	0.37 mg/100 g of blood plasma	0.37 mg/100 g of blood plasma	0.37 mg/100 g of blood plasma	0.34 mg/100 g of blood plasma	0.37 mg/100 g of blood plasma	0.31 mg/100 g of blood plasma	0.38 mg/100 g of blood plasma	1%	CCCCCCCCCCCCCCCCCCOC(=O)[C@@H](N)CCSC [n-octadecyl methioninate]	

Continued, molecule first:

SMILES	Bioavailability [1]	[met] methionine concentration in blood plasma ([3]; bovine, in vivo, 0 h)	[met] methionine concentration in blood plasma ([3]; bovine, in vivo, 1 h)	[met] methionine concentration in blood plasma ([3]; bovine, in vivo, 2 h)	[met] methionine concentration in blood plasma ([3]; bovine, in vivo, 3 h)	[met] methionine concentration in blood plasma ([3]; bovine, in vivo, 5 h)	[met] methionine concentration in blood plasma ([3]; bovine, in vivo, 7 h)	[met] methionine concentration in blood plasma ([3]; bovine, in vivo, 28 h)	Bioavailability % ([3]; bovine, in vivo, po)	further results
CSCCC(O)C(=O)OC1CCCCC1 (centres unmarked) [cyclohexyl ester of HMB]	20%									
CCC(C)OC(=O)C(O)CCSC (centres unmarked) [Sec butyl ester of HMB]	31%									
CSCCC(O)C(=O)OC(C)C (centres unmarked) [Isopropyl ester of HMB, isopropyl ester of the hydroxy analogue of methionine]	59%									appearance of the bioavailability peak in the blood following administration [1]: relatively quickly; bioavailability of methionine [1]: more than 50%; methionine equivalent provided to the bloodstream by absorption across the rumen wall [1]: at least 50%; Blood plasma HMB concentration (in vivo): 0.00 mg/100 g of plasma; Speed of providing methionine and HMB to the bloodstream (in vivo): much quicker than HMB itself; Butter Content of Milk (cows): 44.3 g/kg; Daily amount of milk (cows): 32.3 kg/cow; Protein content of Milk (cows): 30.8 g/kg; Effect of addition to the diet on milk composition (cows): higher fat content and higher protein content
COC(=O)C(O)CCSC (centres unmarked) [Methyl ester of HMB, methyl ester of HMB]	39%									amount remaining after incubation in rumen juices [2]: 1.8%
CSCC[C@H](N)C(=O)O [methionine]										amount remaining after incubation in rumen juices [2]: 34%
CSCCC(O)C(=O)O (centres unmarked) [HMB, 2-hydroxy-4-(methylthio) butanoic acid]										Blood plasma HMB concentration (in vivo; 0 min): 0.00 mg/100 g of plasma; Blood plasma HMB concentration (in vivo; 10 min): 0.00 mg/100 g of plasma; Blood plasma HMB concentration (in vivo; 20 min): 0.00 mg/100 g of plasma; Blood plasma HMB concentration (in vivo; 30 min): 0.00 mg/100 g of plasma; Blood plasma HMB concentration (in vivo; 40 min): 0.00 mg/100 g of plasma; Blood plasma HMB concentration (in vivo; 50 min): 0.00 mg/100 g of plasma; Blood plasma HMB concentration (in vivo; 60 min): 0.00 mg/100 g of plasma; Blood plasma HMB concentration (in vivo; 75 min): 0.00 mg/100 g of plasma; Blood plasma HMB concentration (in vivo; 90 min): 0.00 mg/100 g of plasma; concentration at 0 min (in vivo; Blood plasma HMB concentration): 0 ng/g; concentration at 10 min (in vivo; Blood plasma HMB concentration): 0 ng/g; concentration at 20 min (in vivo; Blood plasma HMB concentration): 0 ng/g; concentration at 30 min (in vivo; Blood plasma HMB concentration): 0 ng/g; concentration at 40 min (in vivo; Blood plasma HMB concentration): 0 ng/g; concentration at 50 min (in vivo; Blood plasma HMB concentration): 0 ng/g; concentration at 60 min (in vivo; Blood plasma HMB concentration): 0 ng/g; concentration at 75 min (in vivo; Blood plasma HMB concentration): 0 ng/g; concentration at 90 min (in vivo; Blood plasma HMB concentration): 0 ng/g; Bioavailability [4]: 3%; amount remaining after incubation in rumen juices [2]: 85%
CSCC[C@H](N)C(=O)OC1CCCCC1 [Cyclohexyl methioninate, cyclohexyl methioninate]		0.29 mg/100 g of blood plasma	2.55 mg/100 g of blood plasma	2.27 mg/100 g of blood plasma	1.88 mg/100 g of blood plasma	1.61 mg/100 g of blood plasma	1.55 mg/100 g of blood plasma	0.38 mg/100 g of blood plasma	35%	
CCOC(=O)[C@H](CCSC)NC(C)=O [ethyl N-acetyl methioninate]										[met] methionine concentration in blood plasma ([3]; 0 hours after administration, spot dose equivalent to 50 g methionine, 2 cows): 0.26 mg/100 g of blood plasma; [met] methionine concentration in blood plasma ([3]; 1 hour after administration, spot dose equivalent to 50 g methionine, 2 cows): 1.84 mg/100 g of blood plasma; [met] methionine concentration in blood plasma ([3]; 2 hours after administration, spot dose equivalent to 50 g methionine, 2 cows): 1.97 mg/100 g of blood plasma; [met] methionine concentration in blood plasma ([3]; 3 hours after administration, spot dose equivalent to 50 g methionine, 2 cows): 1.53 mg/100 g of blood plasma; [met] methionine concentration in blood plasma ([3]; 5 hours after administration, spot dose equivalent to 50 g methionine, 2 cows): 1.12 mg/100 g of blood plasma; [met] methionine concentration in blood plasma ([3]; 7 hours after administration, spot dose equivalent to 50 g methionine, 2 cows): 0.86 mg/100 g of blood plasma; [met] methionine concentration in blood plasma ([3]; 28 hours after administration, spot dose equivalent to 50 g methionine, 2 cows): 0.36 mg/100 g of blood plasma; Bioavailability % ([3]; AUC method, spot dose equivalent to 50 g methionine): 20%
CSCC[C@H](N)C(=O)OC(C)C [Isopropyl methioninate, isopropyl methioninate]		0.33 mg/100 g of blood plasma	3.62 mg/100 g of blood plasma	3.21 mg/100 g of blood plasma	2.86 mg/100 g of blood plasma	2.22 mg/100 g of blood plasma	1.93 mg/100 g of blood plasma	0.35 mg/100 g of blood plasma	44%	Butter Content of Milk (cows): 43.3 g/kg; Daily amount of milk (cows): 32.7 kg/cow; Protein content of Milk (cows): 30.6 g/kg; Effect of addition to the diet on milk composition (cows): higher fat content and higher protein content
